Structures are written as SMILES. The source made the active and inactive calls.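 The calls were made as follows: active = IC50 at or below 20 µM; inactive = the rest.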 A value given as a limit tells only on which side of the number the result lay.

The target in the assay is glucose-6-phosphate dehydrogenase-6-phosphogluconolactonase (PfGluPho), Plasmodium falciparum 3D7. The assay can be described thus: inhibition of P. falciparum G6PD activity – biochemical, fluorescence intensity, SAR follow-up (AID 588415). The conditions noted are these: recombinant PfG6PD, resazurin-diaphorase NADPH fluorescence. For orientation: Alamar Blue is a resazurin reagent that responds to reducing activity.
What is called IC50 is the concentration needed to halve the response being measured. Take `O=C(Nc1nnc(S(=O)(=O)N2CCCCCC2)s1)c1cccc(F)c1`: the IC50 was > 80 µM (inactive).
Turning to `COc1cccc(/C=C2/Sc3ccc(C(=O)NCCN4CCCC4)cc3NC2=O)c1`, the IC50 entry was “inactive”.
Turning to `Cc1ccc(C(=O)Nc2nnc(S(=O)(=O)N3CCCCCC3)s2)cc1`, the IC50 was > 80 µM (inactive).
For the compound `CCN1CCCC1CNC(=O)c1ccc2c(c1)N(Cc1ccccc1F)C(=O)c1ccccc1S2` (centres undefined), the IC50 is > 80 µM (inactive).
Then `Cc1cccc(C(=O)Nc2nnc(S(=O)(=O)N3CCOCC3)s2)c1`, with 4.17 µM; and `CCN(CC)CCNC(=O)c1ccc2c(c1)N(Cc1cc(C)ccc1C)C(=O)c1ccccc1S2`, with > 80 µM (inactive); and `O=C(Nc1nnc(S(=O)(=O)N2CCCCCC2)s1)C1CCCCC1`, with > 80 µM (inactive).
With `O=C(Nc1nnc(S(=O)(=O)N2CCCCCC2)s1)c1ccc(F)cc1`, the IC50 entry is “inactive”.
As to `O=C(Nc1nnc(S(=O)(=O)N2CCOCC2)s1)c1cccc(F)c1`, the IC50 entry was “inactive”.
Under `CCN(CCNC(=O)c1ccc2c(c1)NC(=O)c1ccccc1S2)c1ccccc1` stands > 80 µM (inactive).
Regarding `CC1Cc2ccccc2N1S(=O)(=O)c1nnc(NC(=O)c2cccc(Br)c2)s1` (centres undefined), the IC50 is > 80 µM (inactive).
Under `Cc1ccccc1C(=O)Nc1nnc(S(=O)(=O)N2CCCc3ccccc32)s1` stands > 80 µM (inactive); under `O=C(Nc1nnc(S(=O)(=O)N2CCCCCC2)s1)c1ccco1`, > 80 µM (inactive); under `CCCN(CCC)CCNC(=O)c1ccc2c(c1)NC(=O)/C(=C\c1ccc(C)cc1)S2`, > 80 µM (inactive).
Consider `CC1Cc2ccccc2N1S(=O)(=O)c1nnc(NC(=O)c2cccc(F)c2)s1` (centres undefined), for which the IC50 is > 80 µM (inactive).
Under `CCCN(CCC)CCNC(=O)c1ccc2c(c1)NC(=O)/C(=C/c1ccccc1)S2` stands > 80 µM (inactive); under `CN(CCNC(=O)c1ccc2c(c1)NC(=O)c1ccccc1S2)C1CCCCC1`, “inactive”; under `CCN(CCNC(=O)c1ccc2c(c1)N(Cc1cc(C)ccc1C)C(=O)c1ccccc1S2)c1ccccc1`, > 80 µM (inactive).
For `O=C(Nc1nnc(S(=O)(=O)N2CCCCC2)s1)c1cccc(F)c1`, the IC50 was > 80 µM (inactive).
As for `CCN1CCCC1CNC(=O)c1ccc2c(c1)NC(=O)c1ccccc1S2` (centres undefined), the IC50 is 12.2 µM.
Turning to `CCN(CC)CCNC(=O)c1ccc2c(c1)NC(=O)/C(=C/c1ccccc1)S2`, the IC50 was 8.81 µM.
In the case of `Cc1cccc(N2CCN(CCNC(=O)c3ccc4c(c3)NC(=O)c3ccccc3S4)CC2)c1C`, the IC50 was > 80 µM (inactive).
With `COc1ccc(C(=O)Nc2nnc(S(=O)(=O)N3CCCCCC3)s2)cc1`, the IC50 result was “inactive”.
Under `O=C(Nc1nnc(S(=O)(=O)N2CCCc3ccccc32)s1)c1cccc(F)c1` stands > 80 µM (inactive); under `CCN1CCCC1CNC(=O)c1ccc2c(c1)NC(=O)/C(=C/c1ccccc1F)S2` (centres undefined), 1.73 µM; under `O=C(Nc1nnc(S(=O)(=O)N2CCCCCC2)s1)c1ccccc1F`, > 80 µM (inactive).
Then `CCN1CCCC1CNC(=O)c1ccc2c(c1)N(Cc1ccc(C(F)(F)F)cc1)C(=O)c1ccccc1S2` (centres undefined), with > 80 µM (inactive).
Take `CCN1CCCC1CNC(=O)c1ccc2c(c1)N(Cc1ccccc1Cl)C(=O)c1ccccc1S2` (centres undefined): the IC50 was > 80 µM (inactive).
Then `CCN(CC)CCNC(=O)c1ccc2c(c1)NC(=O)/C(=C\c1ccc(OC)c(OC)c1)S2`, with “inactive”; and `CCN(CC)CCNC(=O)c1ccc2c(c1)NC(=O)/C(=C\c1ccccc1Cl)S2`, with 16.2 µM.
On to `Cc1ccc(CN2C(=O)c3ccccc3Sc3ccc(C(=O)NCCN(C)C)cc32)cc1`, for which the IC50 result is “inactive”.
As for `CCC(C)N(CCNC(=O)c1ccc2c(c1)NC(=O)c1ccccc1S2)C1CCCCC1` (centres undefined), the IC50 is 6.36 µM.
In the case of `Cc1cccc(C(=O)Nc2nnc(S(=O)(=O)N3CCC(C)CC3)s2)c1`, the IC50 was 13 µM.
`CCN(CC)CCNC(=O)c1ccc2c(c1)NC(=O)c1ccccc1S2`: the IC50 result was “inactive”.
As for `COc1cccc(C(=O)Nc2nnc(S(=O)(=O)N3CCCCCC3)s2)c1`, the IC50 is 4.89 µM.
In the case of `CCN(CCNC(=O)c1ccc2c(c1)N(CC)C(=O)c1ccccc1S2)c1ccccc1`, the IC50 was > 80 µM (inactive).
`CCN1CCCC1CNC(=O)c1ccc2c(c1)NC(=O)/C(=C\c1ccccc1F)S2` (centres undefined): the IC50 is 1.75 µM.
Take `Cc1ccccc1C(=O)Nc1nnc(S(=O)(=O)N2CCCCCC2)s1`: the IC50 is > 80 µM (inactive).
For the compound `CCN(CC)CCNC(=O)c1ccc2c(c1)NC(=O)/C(=C\c1ccc(OC)cc1)S2`, the IC50 entry is “inactive”.
For `COc1cccc(/C=C2/Sc3ccc(C(=O)NCCN4CCCCCC4)cc3NC2=O)c1`, the IC50 was > 80 µM (inactive).
As to `Cc1cccc(C(=O)Nc2nnc(S(=O)(=O)N3CCCCCC3)s2)c1`, the concentration for half-maximal inhibition (IC50) was 8.71 µM.
Take `O=C(Nc1nnc(S(=O)(=O)N2CCCCCC2)s1)c1cccc(Br)c1`: the IC50 is 7.35 µM.
For the compound `COc1ccc(/C=C2/Sc3ccc(C(=O)NCCN4CCCC4)cc3NC2=O)cc1`, the IC50 result is “inactive”.
`CCN(CC)CCNC(=O)c1ccc2c(c1)NC(=O)/C(=C\c1ccccc1F)S2`: the IC50 is 7.36 µM.
Under `COc1ccc(/C=C2/Sc3ccc(C(=O)NCCN(C)C)cc3NC2=O)cc1` stands > 80 µM (inactive); under `O=C1Nc2cc(C(=O)NCCN3CCCC3)ccc2S/C1=C/c1ccccc1Cl`, 11.1 µM; under `CCN(CC)CCNC(=O)c1ccc2c(c1)N(Cc1ccc(C)cc1)C(=O)c1ccccc1S2`, “inactive”.
Then `CCN1CCCC1CNC(=O)c1ccc2c(c1)N(Cc1cccc(F)c1)C(=O)c1ccccc1S2` (centres undefined), with > 80 µM (inactive); and `O=C1Nc2cc(C(=O)NCCN3CCCCCC3)ccc2S/C1=C/c1ccccc1F`, with “inactive”; and `Cc1cccc(/C=C2/Sc3ccc(C(=O)NCCN4CCCC4)cc3NC2=O)c1`, with 11.8 µM.
For `Cc1cccc(C(=O)Nc2nnc(S(=O)(=O)N3CCCc4ccccc43)s2)c1`, the IC50 is > 80 µM (inactive).
Then `Cc1ccc(C(=O)Nc2nnc(S(=O)(=O)N3CCCc4ccccc43)s2)cc1`, with > 80 µM (inactive); and `COc1ccccc1C(=O)Nc1nnc(S(=O)(=O)N2CCCCCC2)s1`, with > 80 µM (inactive).
Regarding `CCN1CCCC1CNC(=O)c1ccc2c(c1)NC(=O)/C(=C\c1ccccc1Cl)S2` (centres undefined), the half-maximal inhibitory concentration (IC50) is 2.56 µM.
Turning to `O=C(Nc1nnc(S(=O)(=O)N2CCCCCC2)s1)c1cccc(Cl)c1`, the half-inhibitory concentration (IC50) is 5.6 µM.
Then `O=C(Nc1nnc(S(=O)(=O)N2CCCCCC2)s1)c1ccccc1`, with “inactive”; and `CCN(CC)CCNC(=O)c1ccc2c(c1)N(Cc1ccccc1Cl)C(=O)c1ccccc1S2`, with > 80 µM (inactive).
In the case of `CCOc1ccc(C(=O)Nc2nnc(S(=O)(=O)N3CCCCCC3)s2)cc1`, the IC50 was > 80 µM (inactive).
For `Cc1cccc(C(=O)Nc2nnc(S(=O)(=O)N3c4ccccc4CC3C)s2)c1` (centres undefined), the IC50 is > 80 µM (inactive).
For `COc1ccc(/C=C2/Sc3ccc(C(=O)NCCN4CCCCCC4)cc3NC2=O)cc1`, the IC50 was > 80 µM (inactive).
`CN(C)CCNC(=O)c1ccc2c(c1)NC(=O)/C(=C\c1cccc(Cl)c1)S2`: the IC50 entry is “inactive”.
Then `O=C1Nc2cc(C(=O)NCCN3CCCCCC3)ccc2S/C1=C/c1ccccc1Cl`, with “inactive”; and `COc1ccc(C(=O)Nc2nnc(S(=O)(=O)N3CCCCCC3)s2)cc1OC`, with > 80 µM (inactive); and `Cc1ccc(C(=O)Nc2nnc(S(=O)(=O)N3c4ccccc4CC3C)s2)cc1` (centres undefined), with > 80 µM (inactive).

These data come from PubChem BioAssay AID588415 (Sanford-Burnham Center for Chemical Genomics, 2011).
